Consider 1 molecule from patent publication EP4512427A1, “ANTIBODY-DRUG CONJUGATES BASED ON MOLECULAR GLUE DEGRADERS AND USES THEREOF” (Mablink Bioscience, priority 2023, dated 2025).

For one experiment, the system named is CycK. The experiment can be described thus: CycK protein quantification by Western Blot. The class given is cell-based, human. How it is done:
1×10^6 JIMT-1 cells were plated in 3mL of DMEM/FBS 90:10 (v/v) in 6-well plates and incubated overnight. Cells were treated with the compound 2384 of the invention with or without the proteasome inhibitor MG-132 (MedChemExpress, Cat HY-13259) for 2h. Cells were harvested, and protein were extracted using complete RIPA buffer (RIPA buffer, 1 mM DTT, 1M NaF, 100 mM sodium orthovanadate, phosphatase inhibitor buffer and protease inhibitors) for 1 hour on ice. Lysate were centrifuged 15min at 12 000g at 4°C. and proteins were mixed with 4x Laemmli Sample Buffer (Bio-Rad), heated at 95 °C for 5 mins and separated by SDS PAGE (PROTEAN TGX Stain-Free Gels, Bio-Rad). Proteins were then transferred onto PVDF membrane (iBlot®2 PVDF stacks, Invitrogen) using the iBlot2 device (Invitrogen) and blocked with TBS buffer (Intercept® Blocking Buffer, LI-COR Biosciences). Primary antibodies were incubated overnight at 4°C and secondary antibodies (IRDye Infrared Dyes from LI-COR Biosciences) 1 hour at room temperature. Used primary antibody were: anti-CycK (cat#A301-939A, Bethyl Laboratories, dil. 1:1000) and anti-β-actin (cat#A5441, Sigma-Aldrich, dil. 1:5000). Membranes were scanned using a c500 Imaging System (Azure Biosystems) and densitometric quantification were performed using imaged software. Protein levels were normalized against β-actin.
For orientation: A western blot detects proteins with antibodies after separation by electrophoresis.

A further experiment has as its system CycK mRNA. The experiment can be described thus: CycK mRNA by RT-qPCR. Type of experiment: cell-based, human. The note with it: JIMT-1 cells, 1µM, 2h. How it is done: 1×10^6 JIMT-1 cells were plated in 3mL of DMEM/FBS 90:10 (v/v) in 6-well plates and incubated overnight. Cells were treated with the compound 2384 of the invention, with CR8 (a known molecular glue degrader that depletes CycK) or with the proteasome inhibitor MG-132 (MedChemExpress, Cat HY-13259) for 2h. RNA was extracted using the QIAamp RNeasy Mini Kit (cat#74106, Qiagen) according to the manufacturer's protocol. Reverse transcription was performed using SuperScripr™ IV reverse transcriptase (cat#LT02241, Invitrogen). Quantitative PCR was performed using a No ROX Sybr Master Mix in the LightCycler 480 Real-Time PCR system (Roche Life Science).
Cyclin K forward ([…]) and reverse ([…]) primers were purchased from Eurogentec. Gene expression was normalized using ribosomal 28S as the housekeeping gene.
(In qPCR the cycle at which signal appears reflects the starting amount.)

Another experiment deals with T1, CDK12/CycK (Homo sapiens, UniProt Q9NYV4).
T1 construct: GST-fusion or His-tag (not given for this kinase); purchased Reaction Biology, Germany; host or cells: Sf9 insect cells or E.coli
T1 sequence (Q9NYV4 whole entry, the tested form may be a part): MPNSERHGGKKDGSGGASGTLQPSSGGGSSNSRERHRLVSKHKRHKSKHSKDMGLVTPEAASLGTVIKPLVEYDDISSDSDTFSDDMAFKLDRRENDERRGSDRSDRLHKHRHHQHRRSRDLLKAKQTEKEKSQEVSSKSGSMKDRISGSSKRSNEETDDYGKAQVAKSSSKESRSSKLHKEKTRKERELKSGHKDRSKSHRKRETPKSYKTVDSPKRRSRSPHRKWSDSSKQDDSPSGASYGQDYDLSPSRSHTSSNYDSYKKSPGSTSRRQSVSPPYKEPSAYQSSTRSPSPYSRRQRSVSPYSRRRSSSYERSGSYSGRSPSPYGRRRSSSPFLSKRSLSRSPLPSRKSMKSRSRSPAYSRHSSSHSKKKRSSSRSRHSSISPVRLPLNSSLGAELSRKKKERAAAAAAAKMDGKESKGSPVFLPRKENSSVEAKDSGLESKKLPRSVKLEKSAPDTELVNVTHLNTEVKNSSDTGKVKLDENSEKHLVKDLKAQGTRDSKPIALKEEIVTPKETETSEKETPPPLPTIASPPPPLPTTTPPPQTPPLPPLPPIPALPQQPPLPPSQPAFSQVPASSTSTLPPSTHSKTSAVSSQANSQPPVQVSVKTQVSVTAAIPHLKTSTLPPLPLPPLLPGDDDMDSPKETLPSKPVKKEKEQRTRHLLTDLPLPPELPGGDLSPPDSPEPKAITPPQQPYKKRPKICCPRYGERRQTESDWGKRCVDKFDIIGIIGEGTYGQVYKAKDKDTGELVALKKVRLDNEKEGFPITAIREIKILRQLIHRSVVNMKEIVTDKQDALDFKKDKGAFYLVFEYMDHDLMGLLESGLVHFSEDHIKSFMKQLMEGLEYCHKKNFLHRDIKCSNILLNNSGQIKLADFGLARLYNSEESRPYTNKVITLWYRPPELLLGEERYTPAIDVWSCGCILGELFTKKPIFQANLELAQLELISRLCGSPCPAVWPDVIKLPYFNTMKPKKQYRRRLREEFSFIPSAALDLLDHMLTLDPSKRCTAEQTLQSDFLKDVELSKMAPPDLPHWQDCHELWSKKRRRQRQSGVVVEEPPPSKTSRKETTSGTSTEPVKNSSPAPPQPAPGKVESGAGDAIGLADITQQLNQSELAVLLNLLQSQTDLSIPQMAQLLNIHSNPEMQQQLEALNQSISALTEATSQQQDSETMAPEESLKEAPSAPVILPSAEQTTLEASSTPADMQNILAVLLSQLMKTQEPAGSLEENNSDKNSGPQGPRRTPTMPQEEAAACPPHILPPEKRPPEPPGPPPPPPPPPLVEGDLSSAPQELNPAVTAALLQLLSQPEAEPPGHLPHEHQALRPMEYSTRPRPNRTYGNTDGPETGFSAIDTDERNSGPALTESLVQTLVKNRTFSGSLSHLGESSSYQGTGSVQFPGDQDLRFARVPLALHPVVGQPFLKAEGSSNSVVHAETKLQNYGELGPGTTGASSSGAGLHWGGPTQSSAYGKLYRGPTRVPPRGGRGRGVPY
T1 sequence (O75909 whole entry partner, the tested form may be a part): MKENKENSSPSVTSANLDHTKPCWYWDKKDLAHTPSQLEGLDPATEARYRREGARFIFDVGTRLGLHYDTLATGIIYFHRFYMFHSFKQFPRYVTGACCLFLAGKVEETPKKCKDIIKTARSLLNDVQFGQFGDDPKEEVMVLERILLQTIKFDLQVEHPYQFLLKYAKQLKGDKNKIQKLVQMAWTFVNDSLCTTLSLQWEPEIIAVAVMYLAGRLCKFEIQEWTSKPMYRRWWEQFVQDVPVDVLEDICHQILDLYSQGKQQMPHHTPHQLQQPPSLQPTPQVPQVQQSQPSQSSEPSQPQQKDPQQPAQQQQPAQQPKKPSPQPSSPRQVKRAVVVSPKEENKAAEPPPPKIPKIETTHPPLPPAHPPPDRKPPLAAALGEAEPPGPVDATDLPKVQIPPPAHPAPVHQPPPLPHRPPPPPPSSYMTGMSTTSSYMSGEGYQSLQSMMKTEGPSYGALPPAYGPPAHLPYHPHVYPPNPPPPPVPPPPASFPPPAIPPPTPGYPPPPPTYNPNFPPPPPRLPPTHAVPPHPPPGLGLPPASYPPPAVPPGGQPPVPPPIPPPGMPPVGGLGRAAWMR
The experiment can be described thus: IC50 profiling on top 25 protein kinases. Type of experiment: biochemical. The note with it: titration from 0.1 nM to 10 000 nM. The protocol:
(§1) Compound 2384 according to the disclosure was subjected to kinase screening assays (performed at Reaction Biology, Germany). […] A radiometric protein kinase assay (33PanQinase® ActivityAssay) was used for measuring the kinase activity of 340 protein kinases. All kinase assays were performed in 96-well FlashPlates™ from Perkin Elmer (Boston, MA, USA) in a 50 µL reaction volume. […] All PKC assays (except the PKC-mu and the PKC-nu assay) additionally contained 1 mM CaCl2, 4 mM EDTA, 5 µg/m! Phosphatidylserine and 1 µg/m! 1,2-Dioleyl-glycerol. The CAMK1D, CAMK2A, CAMK2B, CAMK2D, CAMK2G, CAMK4, CAMKK1, CAMKK2, DAPK2, EEF2K, MYLK, MYLK2 and MYLK3 assays additionally contained 1 µg/ml Calmodulin and 0.5 mM CaCl2. The PRKG1 and PRKG2 assays additionally contained 1 µM cGMP. The DNA-PK assay additionally contained 2.5 µg/ml DNA. The protein kinase reaction cocktails were incubated at 30°C for 60 minutes. The reaction was stopped with 50 µl of 2 % (v/v) H3PO4, plates were aspirated and washed two times with 200 µL 0.9 % (w/v) NaCl. Incorporation of 33Pi (counting of "cpm") was determined with a microplate scintillation counter (Microbeta, Wallac). All protein kinase assays were performed with a BeckmanCoulter Biomek 2000/SL robotic system. All protein kinases provided by RBE were expressed in Sf9 insect cells or in E.coli as recombinant GST-fusion proteins or His-tagged proteins, either as full-length or enzymatically active fragments. All kinases were produced from human cDNAs and purified by either GSH-affinity chromatography or immobilized metal. Affinity tags were removed from a number of kinases during purification. The purity of the protein kinases was examined by SDS-PAGE/Coomassie staining, the identity was checked by mass spectroscopy. Kinases from external vendors were expressed, purified and quality-controlled. Staurosporine was used as positive control.
(§2) Staurosporine was used as positive control.

The target in a further experiment is T2, CDK13/CycK (Homo sapiens, UniProt Q14004).
T2 construct: GST-fusion or His-tag (not given for this kinase); purchased Reaction Biology, Germany; host or cells: Sf9 insect cells or E.coli
T2 sequence (Q14004 whole entry, the tested form may be a part): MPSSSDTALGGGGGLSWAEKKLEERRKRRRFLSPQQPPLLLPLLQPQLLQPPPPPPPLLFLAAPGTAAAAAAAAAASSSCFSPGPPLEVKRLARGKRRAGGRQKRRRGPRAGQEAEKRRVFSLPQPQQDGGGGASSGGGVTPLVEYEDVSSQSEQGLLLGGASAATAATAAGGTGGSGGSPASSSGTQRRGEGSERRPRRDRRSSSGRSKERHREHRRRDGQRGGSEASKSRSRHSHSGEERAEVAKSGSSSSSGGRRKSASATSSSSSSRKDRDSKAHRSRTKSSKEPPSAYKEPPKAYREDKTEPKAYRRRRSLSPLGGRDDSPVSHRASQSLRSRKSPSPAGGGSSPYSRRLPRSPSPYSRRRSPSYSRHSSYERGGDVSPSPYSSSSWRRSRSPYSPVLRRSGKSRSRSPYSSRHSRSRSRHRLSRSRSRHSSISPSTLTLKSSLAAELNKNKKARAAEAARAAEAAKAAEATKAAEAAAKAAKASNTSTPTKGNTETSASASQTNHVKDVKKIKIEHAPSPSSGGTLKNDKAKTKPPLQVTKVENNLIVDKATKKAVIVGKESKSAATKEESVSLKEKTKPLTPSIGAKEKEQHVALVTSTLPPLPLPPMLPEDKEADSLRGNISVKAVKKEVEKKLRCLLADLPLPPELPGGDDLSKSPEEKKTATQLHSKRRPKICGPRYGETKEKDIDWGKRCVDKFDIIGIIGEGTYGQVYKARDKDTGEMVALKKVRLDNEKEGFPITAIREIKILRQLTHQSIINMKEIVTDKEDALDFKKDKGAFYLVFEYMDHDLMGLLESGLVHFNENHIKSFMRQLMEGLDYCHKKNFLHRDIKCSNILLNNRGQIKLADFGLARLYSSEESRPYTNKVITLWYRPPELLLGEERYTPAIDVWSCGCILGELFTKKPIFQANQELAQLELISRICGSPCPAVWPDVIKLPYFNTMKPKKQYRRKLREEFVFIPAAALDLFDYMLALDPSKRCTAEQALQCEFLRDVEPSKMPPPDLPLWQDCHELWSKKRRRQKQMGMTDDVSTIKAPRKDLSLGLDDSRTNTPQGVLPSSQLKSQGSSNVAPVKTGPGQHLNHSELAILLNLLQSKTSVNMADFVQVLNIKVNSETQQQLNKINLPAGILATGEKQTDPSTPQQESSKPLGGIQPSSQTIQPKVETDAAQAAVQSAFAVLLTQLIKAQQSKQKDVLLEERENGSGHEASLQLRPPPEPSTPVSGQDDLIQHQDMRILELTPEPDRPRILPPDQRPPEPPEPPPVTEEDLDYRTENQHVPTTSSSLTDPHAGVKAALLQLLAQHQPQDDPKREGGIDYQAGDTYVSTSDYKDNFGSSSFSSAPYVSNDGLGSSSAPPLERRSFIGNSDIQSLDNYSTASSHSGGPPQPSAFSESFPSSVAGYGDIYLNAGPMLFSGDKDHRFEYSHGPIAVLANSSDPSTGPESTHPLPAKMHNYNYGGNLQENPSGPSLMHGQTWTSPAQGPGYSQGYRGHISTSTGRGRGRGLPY
T2 sequence (O75909 whole entry partner, the tested form may be a part): as the sequence (O75909 whole entry partner, the tested form may be a part) above
The experiment can be described thus: IC50 profiling on top 25 protein kinases. The note with it: titration from 0.1 nM to 10 000 nM. The class given is biochemical. The protocol: as §1, §2

The next experiment deals with T3, CDK9/CycK (Homo sapiens, UniProt P50750).
T3 construct: GST-fusion or His-tag (not given for this kinase); purchased Reaction Biology, Germany; host or cells: Sf9 insect cells or E.coli
T3 sequence (P50750 whole entry, the tested form may be a part): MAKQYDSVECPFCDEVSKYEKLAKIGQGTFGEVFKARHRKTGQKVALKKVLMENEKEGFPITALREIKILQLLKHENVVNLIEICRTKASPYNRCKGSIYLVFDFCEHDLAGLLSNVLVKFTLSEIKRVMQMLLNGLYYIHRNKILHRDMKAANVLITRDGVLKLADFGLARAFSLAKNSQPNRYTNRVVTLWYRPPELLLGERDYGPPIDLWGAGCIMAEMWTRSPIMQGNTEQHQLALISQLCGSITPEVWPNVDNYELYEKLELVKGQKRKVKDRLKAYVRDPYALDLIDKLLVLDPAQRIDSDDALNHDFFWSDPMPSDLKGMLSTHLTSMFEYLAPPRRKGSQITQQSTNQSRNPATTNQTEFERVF
T3 sequence (O75909 whole entry partner, the tested form may be a part): as the sequence (O75909 whole entry partner, the tested form may be a part) above
The experiment can be described thus: IC50 profiling on top 25 protein kinases. The note with it: titration from 0.1 nM to 10 000 nM. The class given is biochemical. The protocol:
as §1, §2

The next experiment deals with T4, CDK9/CycT1 (Homo sapiens, UniProt P50750).
T4 construct: GST-fusion or His-tag (not given for this kinase); purchased Reaction Biology, Germany; host or cells: Sf9 insect cells or E.coli
T4 sequence (P50750 whole entry, the tested form may be a part): as the sequence (P50750 whole entry, the tested form may be a part) above
T4 sequence (O60563 whole entry partner, the tested form may be a part): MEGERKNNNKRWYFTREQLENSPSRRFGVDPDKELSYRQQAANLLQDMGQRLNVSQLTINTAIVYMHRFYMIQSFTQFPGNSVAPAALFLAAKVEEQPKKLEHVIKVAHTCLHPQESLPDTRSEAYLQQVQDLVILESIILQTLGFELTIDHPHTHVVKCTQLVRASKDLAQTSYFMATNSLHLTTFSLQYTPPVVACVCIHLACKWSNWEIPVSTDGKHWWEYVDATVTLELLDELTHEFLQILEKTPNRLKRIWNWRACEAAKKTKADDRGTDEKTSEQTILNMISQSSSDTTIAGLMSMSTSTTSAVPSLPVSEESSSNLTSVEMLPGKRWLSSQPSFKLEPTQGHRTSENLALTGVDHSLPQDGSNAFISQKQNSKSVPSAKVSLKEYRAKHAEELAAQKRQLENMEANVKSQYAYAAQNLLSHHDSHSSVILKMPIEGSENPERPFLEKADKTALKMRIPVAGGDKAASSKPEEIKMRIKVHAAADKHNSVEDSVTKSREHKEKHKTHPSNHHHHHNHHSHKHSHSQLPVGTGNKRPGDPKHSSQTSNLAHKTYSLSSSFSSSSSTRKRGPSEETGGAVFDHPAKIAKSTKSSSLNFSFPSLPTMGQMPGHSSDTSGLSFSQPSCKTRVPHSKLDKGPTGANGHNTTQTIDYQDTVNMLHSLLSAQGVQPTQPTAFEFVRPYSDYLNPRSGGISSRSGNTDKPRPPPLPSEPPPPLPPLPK
The experiment can be described thus: IC50 profiling on top 25 protein kinases. Type of experiment: biochemical. The note with it: titration from 0.1 nM to 10 000 nM. How it is done:
as §1, §2

The structures appear in SMILES notation.

A word on the IC50: it is the concentration at which inhibition is half-maximal. A low value points to higher potency. As for `N[C@H]1CC[C@H](Nc2nc(NCc3ccc(-c4ccccn4)cc3)n3ncc(Br)c3n2)CC1` [Compound 2384], in the experiment with CycK (10nM, 2h treatment of JIMT-1 cells), the CycK degradation entry is reported as “complete CycK degradation”. The CycK protein content result in the experiment with CycK (JIMT-1 cells, 1µM, 2h) is given as “decreased CycK protein content”; in the experiment with CycK (JIMT-1 cells, combination with the proteasome inhibitor MG-132, 2h), “restored the content in cycK protein”. The “minimum effective dose for CycK degradation compared with CR8” value in the experiment with CycK (JIMT-1 cells, 2h) was “approximately 10 times lower”. Also, the “CycK mRNA level” value in the experiment with CycK mRNA is on record as “not at the CycK mRNA level”. For the same molecule, the 50% inhibitory concentration (IC50) against CDK12/CycK, on CDK13/CycK, against CDK9/CycK and against CDK9/CycT1 was less than 25 nM each time.
